The target in series [1] is T1, methionine aminopeptidase 2 (LdMAP2) (Leishmania donovani, UniProt A0A3S7WWI2).
T1 construct: gene LdCL_210014600
Put plainly: fluorogenic Met-AMC hydrolysis assay, Lineweaver-Burk plot, single inhibitor concentration ([…]). Format: biochemical.

Substrate in series [2]: CSCC[C@H](N)C(=O)Nc1ccc2c(C)cc(=O)oc2c1
Put plainly: purified protein. Particulars: divalent metal ion ([…] NiSO4 in assay).

The Ki is the equilibrium dissociation constant of an inhibitor or competing ligand from its target. A low value points to tighter binding. As usually defined, the Km is the substrate concentration at which the rate is half of its maximum.

In series [1], `CO[C@@H]1[C@H](OC(=O)NC(=O)CCl)CC[C@]2(CO2)[C@H]1[C@@]1(C)O[C@@H]1CC=C(C)C` [TNP-470, 5-methoxy-4-(2-methyl-3-(3-methyl-2-butenyl)oxiranyl)-1-oxaspiro(2,5)oct-6-yl (chloroacetyl) carbamate] returned a Ki of 13.5 nM.

B1: methionine aminopeptidase 2 (LdMAP2) (Leishmania donovani) (protein)
chain: MPPKMSAKNKQQPKQQGGNKKGKGSSQDGDDFDAMLAAAVNASKADAAKNHSNNHQGKRSSNGNGTAPASRSLAADEPVVPSSADHPENPYPKTADGYPRQTWPEPTVLVSKQFAPGQFPAGEIVDHPGEMNNFRRSSEEKRALARASEQQVQEMREAAEVHRQVRTWAQSWIKPGLSLMLMTDRIEKKLNELIGKDGILRGQAFPTGCSLNHVAAHYTPNTGDEKVVLAYDDVMKVDFGTHINGRIIDCAWTVAFNPMFDPLLQAVKEATYEGIKQAGIDVRLGDIGAAIEEVMESHEVEINGKVHQVKSIRNLSGHNIAPYIIHSGKSVPIVKGGEQTKMEEGEVFAIETFGSTGRGFVNEDLECSHYMMRPGAEVMQLRSEKAQQLLKHIHKSYSTLAFCRKWLDRDGFDRHLMNLNRLVDEGAVNKYPPLVDVKGSYTAQYEHTIYLGPTAKEILSKGSDY
With B1, the Km in series [2] came to 200 µM.

These data come from paper PMC5427942, “Methionine aminopeptidase 2 is a key regulator of apoptotic like cell death in Leishmania donovani” (Scientific Reports, 2017).
